Measured values published in US10307425B2, “Compositions and methods for treating toxoplasmosis, cryptosporidiosis and other apicomplexan protozoan related diseases” (UNIVERSITY OF WASHINGTON, priority 2015, dated 2019).
Converted amounts (≈) assume the structure as drawn. Read-outs that look alike come from different tables or passages of the source.

Columns and labels:
SnCDPK1 = experiment: Recombinant SnCDPK1 inhibition; type: biochemical, Sarcocystis neurona
S. neurona merozoites = experiment: S. neurona growth assay (yellow fluorescent protein-expressing clone); conditions: Sarcocystis neurona, read-out: S. neurona EC50
N. caninum [1] = experiment: N. caninum in vitro cultures; type: cell-based, Neospora caninum
N. caninum [2] = experiment: Treatment of non-pregnant and pregnant Balb/c mice infected with N. caninum; type: in vivo, Neospora caninum
BbCDPK1 = BbCDPK1 (Besnoitia besnoiti, UniProt A0A290U7L2); experiment: BbCDPK1 inhibition; type: biochemical
Besnoitia besnoiti = Besnoitia besnoiti in vitro activity; type: cell-based
in vivo = conditions: BALB/c, mouse, po, 10 mg/kg
[3] = pH 6.5
TgCDPK1 = TgCDPK1 (Toxoplasma gondii, UniProt Q9BJF5); experiment: biochemical
physchem = conditions: water, pH 6.5, aqueous buffer
[4] = Rat PK following IV and PO dosing; conditions: rats, PO vs IV

Sequence of TgCDPK1 (Q9BJF5 1-507): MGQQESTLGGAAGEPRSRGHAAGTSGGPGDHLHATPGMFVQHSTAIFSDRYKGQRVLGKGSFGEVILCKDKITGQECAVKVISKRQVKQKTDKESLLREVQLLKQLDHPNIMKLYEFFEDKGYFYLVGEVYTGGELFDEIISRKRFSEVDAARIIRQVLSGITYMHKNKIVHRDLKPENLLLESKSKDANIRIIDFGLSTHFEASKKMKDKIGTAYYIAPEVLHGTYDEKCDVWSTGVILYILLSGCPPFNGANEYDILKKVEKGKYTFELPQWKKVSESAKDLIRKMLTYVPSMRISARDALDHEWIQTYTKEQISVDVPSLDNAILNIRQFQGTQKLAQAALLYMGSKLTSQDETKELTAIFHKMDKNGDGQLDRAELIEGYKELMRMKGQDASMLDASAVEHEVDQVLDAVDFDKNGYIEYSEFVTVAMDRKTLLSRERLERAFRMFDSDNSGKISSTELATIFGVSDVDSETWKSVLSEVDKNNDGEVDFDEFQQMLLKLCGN
Sequence of BbCDPK1 (A0A290U7L2 1-497): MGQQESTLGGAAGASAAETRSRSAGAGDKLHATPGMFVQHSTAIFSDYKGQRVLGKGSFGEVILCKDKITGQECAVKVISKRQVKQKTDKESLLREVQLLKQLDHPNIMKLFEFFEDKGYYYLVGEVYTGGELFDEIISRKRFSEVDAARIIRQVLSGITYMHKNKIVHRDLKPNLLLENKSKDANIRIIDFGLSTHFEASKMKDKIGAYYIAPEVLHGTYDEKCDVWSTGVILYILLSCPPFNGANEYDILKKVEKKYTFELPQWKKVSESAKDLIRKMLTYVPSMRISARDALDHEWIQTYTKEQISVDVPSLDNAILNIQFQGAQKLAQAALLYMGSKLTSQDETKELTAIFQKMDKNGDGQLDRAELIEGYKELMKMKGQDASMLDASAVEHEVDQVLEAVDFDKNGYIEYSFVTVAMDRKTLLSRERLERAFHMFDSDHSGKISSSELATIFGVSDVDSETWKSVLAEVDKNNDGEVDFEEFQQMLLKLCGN

SMILES: Nc1ncnc2c1c(-c1ccc3nccnc3c1)nn2CC1CCNCC1
- IC50 (SnCDPK1): > 2000 nM
- EC50 (S. neurona merozoites): > 10000 nM

SMILES: CCOc1ccc2cc(-c3nn(CC4CCN(C)CC4)c4ncnc(N)c34)ccc2c1 [Compound 150]
- IC50 (SnCDPK1): 5.9 nM
- activity against N. caninum in vitro (N. caninum [1]): effective in treating N. caninum in vitro
- treatment of N. caninum infected mice (N. caninum [2]): treats infected mice and rids of N. caninum infection in brain and fetuses
- IC50 (BbCDPK1): 4 nM
- B. besnoiti EC100 (Besnoitia besnoiti): 2.580 µM
- EC50 (Besnoitia besnoiti; Besnoitia besnoiti, read-out: B. besnoiti EC50): 45 nM
- Cmax (in vivo): 750 ± 150 nM
- EC50 (S. neurona merozoites): 68 nM

SMILES: Nc1ncnc2c1c(-c1ccc3nc(OC4CC4)ccc3c1)nn2CC1CCOCC1 [Example 22, 3-(2-Cyclopropoxyquinolin-6-yl)-1-((tetrahydro-2H-pyran-4-yl)methyl)-1H-pyrazolo[3,4-d]pyrimidin-4-amine]
- Solubility [3]: 17 µM (≈ 7.08 µg/mL)
- Cmax (in vivo; female): 880 ± 230 nM
- Tmax (in vivo; female): 30 min

SMILES: CC(C)(O)Cn1nc(-c2ccc3nc(OC4CC4)ccc3c2)c2c(N)ncnc21 [Example 25, 1-(4-Amino-3-(2-cyclopropoxyquinolin-6-yl)-1H-pyrazolo[3,4-d]pyrimidin-1-yl)-2-methylpropan-2-ol]
- IC50 (SnCDPK1): 7.5 nM
- EC50 (S. neurona merozoites): 128 nM

SMILES: CC(C)(CO)Cn1nc(-c2ccc3cc(OC4CC4)ccc3c2)c2c(N)ncnc21 [Example 26, 3-(4-Amino-3-(6-cyclopropoxynaphthalen-2-yl)-1H-pyrazolo[3,4-d]pyrimidin-1-yl)-2,2-dimethylpropan-1-ol]
- Solubility [3]: 6.2 µM (≈ 2.5 µg/mL)
- Cmax (in vivo; female): 390 ± 160 nM

SMILES: COc1ccc2cc(-c3nn(CC4CCOCC4)c4ncnc(N)c34)ccc2n1 [Example 27, 3-(2-methoxyquinolin-6-yl)-1-((tetrahydro-2H-pyran-4-yl)methyl)-1H-pyrazolo[3,4-d]pyrimidin-4-amine]
- IC50 (TgCDPK1): 21.2 nM
- Cmax (in vivo; female): 3900 ± 1100 nM
- Tmax (in vivo; female): 30 min
- half-life (in vivo; female): 41 ± 21 min
- Solubility (physchem): 8 µM (≈ 3.12 µg/mL)

SMILES: CC(C)Cn1nc(-c2ccc3cc(OCC(C)(C)O)ccc3c2)c2c(N)ncnc21 [Example 33, 1-(6-(4-amino-1-isobutyl-1H-pyrazolo[3,4-d]pyrimidin-3-yl)naphthalen-2-yloxy)-2-methylpropan-2-ol]
- IC50 (TgCDPK1): 5.7 nM
- bioavailability (in words) [4]: essentially complete bioavailability

SMILES: CN1CC(O)(Cn2nc(-c3ccc4nc(OC5CC5)ccc4c3)c3c(N)ncnc32)C1 [Example 103, 3-((4-amino-3-(2-cyclopropoxyquinolin-6-yl)-1H-pyrazolo[3,4-d]pyrimidin-1-yl)methyl)-1-methylazetidin-3-ol]
- IC50 (TgCDPK1): 4.8 nM

SMILES: CCOc1ccc2cc(-c3nn(C(C)C)c4ncnc(N)c34)ccc2n1 [Example 106, 3-(2-ethoxyquinolin-6-yl)-1-isopropyl-1H-pyrazolo[3,4-d]pyrimidin-4-amine]
- IC50 (TgCDPK1): 2 nM

SMILES: CCOc1ccc2cc(-c3nc(CC4CCNCC4)n4ccnc(N)c34)ccc2c1 [Example 114, 1-(6-ethoxynaphthalen-2-yl)-3-(piperidin-4-ylmethyl)imidazo[1,5-a]pyrazin-8-amine]
- IC50 (TgCDPK1): 10 nM

SMILES: CCOc1ccc2cc(-c3nc(CC4CCN(C)CC4)n4ccnc(N)c34)ccc2c1 [Example 115, 1-(6-ethoxynaphthalen-2-yl)-3-((1-methylpiperidin-4-yl)methyl)imidazo[1,5-a]pyrazin-8-amine]
- IC50 (TgCDPK1): 18.6 nM

SMILES: CC(C)n1nc(-c2ccc3cc(OC4COC4)ccc3c2)c2c(N)ncnc21 [Example 116, 1-isopropyl-3-(6-(oxetan-3-yloxy)naphthalen-2-yl)-1H-pyrazolo[3,4-d]pyrimidin-4-amine]
- IC50 (TgCDPK1): 6.1 nM

SMILES: CC(C)n1nc(-c2ccc3cc(OCC(C)(C)O)ccc3c2)c2c(N)ncnc21 [Example 117, 1-((6-(4-amino-1-isopropyl-1H-pyrazolo[3,4-d]pyrimidin-3-yl)naphthalen-2-yl)oxy)-2-methylpropan-2-ol]
- IC50 (TgCDPK1): 3 nM

SMILES: CC(C)n1nc(-c2ccc3cc(OCCO)ccc3c2)c2c(N)ncnc21 [Example 118, 2-((6-(4-amino-1-isopropyl-1H-pyrazolo[3,4-d]pyrimidin-3-yl)naphthalen-2-yl)oxy)ethan-1-ol]
- IC50 (TgCDPK1): 6.2 nM
